Test results from US5010073A, “Use of liposomes as carriers for metalloporphyrins” (The Rockefeller University, priority 1990, dated 1991).
Read-outs that look alike come from different tables or passages of the source.

Legend:
plasma bilirubin levels = experiment: Lowering plasma bilirubin levels in newborn animals; type: in vivo
heme oxygenase [1] = experiment: Inhibition of splenic and hepatic heme oxygenase after injection; type: in vivo, rat; details: single animal; for Heme Oxygenase activity Liver: saline 2.3 ± 0.6; for Heme Oxygenase activity Spleen: saline 9.0 ± 2.4
Procedure: Liver were perfused in situ with ice cold 0.9% NaCl and subsequently homogenized in 3 volumes of 0.1 M potassium phosphate buffer, pH 7.4, containing 0.25 M sucrose. […] Splenic microsomes were prepared in an identical manner. The cytosolic fraction obtained from the liver of control (saline-injected) animals served as a source of bilirubin reductase for subsequent analysis of heme oxygenase activity. Assays for heme oxygenase and metalloporphyrin concentration were performed on fresh microsomes whenever possible. Otherwise, microsomal fractions were kept at liquid nitrogen temperatures until the time of assay.
The activity of heme oxygenase in tissues was determined as described by Drummond and Kappas, supra. […] Standard settings for the two metalloporphyrins examined were: […]
The rats were sacrificed at varying times after injection for measurements of hepatic and splenic heme oxygenase activity.

[2] = cited from earlier work
bilirubin levels [3] = details: cited from earlier work
bilirubin levels [4] = details: NEONATAL MONKEY; dose 24-185 umoles/kg; cited from earlier work
heme oxygenase [5] = details: rats, cited from earlier work
bilirubin levels [6] = details: cited from earlier work; remark: listed apart in the source
heme oxygenase [7] = experiment: Efficacy as heme oxygenase inhibitors (statements in words); details: at the same concentrations as SnPP
[8] = Toxicity of chromium porphyrin preparations; type: in vivo; details: aqueous: isotonic aqueous media at the same level as SnPP; liposomal: at effective dosage levels

C=CC1=C(C)c2cc3[n-]c(cc4[n-]c(cc5nc(cc1n2)C(C)=C5C=C)c(C)c4CCC(=O)[O-])c(CCC(=O)[O-])c3C.[H+].[H+].[Mn+2] [MnPP, manganese protoporphyrin]
lowering plasma bilirubin levels (plasma bilirubin levels): ineffective

C=Cc1c2[n-]c(c1C)/C=c1\[n-]/c(c(C)c1C=C)=C\c1[n-]c(c(CCC(=O)O)c1C)/C=c1\[n-]c(c(C)c1CCC(=O)O)=C2.[Sn+4] [SnPP, tin protoporphyrin]
Heme Oxygenase activity Liver (heme oxygenase [1]; 10 μm/kg IV, 16 hrs): 0.6 nm bilirubin/hr/mg. protein | Heme Oxygenase activity Spleen (heme oxygenase [1]; 10 μm/kg IV, 16 hrs): 3.6 nm bilirubin/hr/mg. protein | Heme Oxygenase activity Liver (heme oxygenase [1]; 10 μm/kg IV, 48 hrs): 1.0 nm bilirubin/hr/mg. protein | Heme Oxygenase activity Spleen (heme oxygenase [1]; 10 μm/kg IV, 48 hrs): 5.9 nm bilirubin/hr/mg. protein | Heme Oxygenase activity Liver (heme oxygenase [1]; 50 μm/kg IV, 16 hrs): 0.4 nm bilirubin/hr/mg. protein | Heme Oxygenase activity Spleen (heme oxygenase [1]; 50 μm/kg IV, 16 hrs): 5.3 nm bilirubin/hr/mg. protein | Heme Oxygenase activity Liver (heme oxygenase [1]; 50 μm/kg IV, 48 hrs): 0.5 nm bilirubin/hr/mg. protein | Heme Oxygenase activity Spleen (heme oxygenase [1]; 50 μm/kg IV, 48 hrs): 6.3 nm bilirubin/hr/mg. protein | CONCENTRATION OF SnPP IN ORGAN @ 24 HOURS, MICROSOMES ([2]; LIVER, rats, intravenous): 146-284 pm/mg. protein | CONCENTRATION OF SnPP IN ORGAN @ 24 HOURS, MICROSOMES ([2]; SPLEEN, rats, intravenous): 60 -90 pm/mg. protein | concentration of SnPP in the spleen relative to SnPP concentration in the liver ([2]; rat, in vivo, iv): one-fourth | concentration ([2]; read-out: CONCENTRATION OF SnPP IN ORGAN @ 24 HOURS, HOMOGENATE, SPLEEN, rats, intravenous, Mean ± SE for 3-4 rats): 6.5 ± 0.6 µM | BILIRUBIN/CO REDUCTION (percent) (bilirubin levels [3]; ABO INCOMPATIBILITY-MAN, dose 0.5 umoles/kg): 21-32% | BILIRUBIN/CO REDUCTION (percent) (bilirubin levels [3]; BILIARY CIRRHOSIS-MAN, dose 0.25-2.0 umoles/kg): 7-23% | BILIRUBIN/CO REDUCTION (percent) (bilirubin levels [3]; GILBERT'S DISEASE-MAN, dose 0.5-1.8 umoles/kg): 29-43% | BILIRUBIN/CO REDUCTION (percent) (bilirubin levels [3]; NORMAL ADULT-MAN, dose 1-2 umoles/kg): 38-47% | BILIRUBIN/CO REDUCTION (percent) (bilirubin levels [4]): 91% | HEME OXYGENASE ACTIVITY 24 HOURS AFTER TREATMENT (heme oxygenase [5]; KIDNEY, prior to treatment 1.8 ± 0.2): 0.6 ± 0.1 nm bilirubin/hr/mg. protein | HEME OXYGENASE ACTIVITY 24 HOURS AFTER TREATMENT (heme oxygenase [5]; LIVER, prior to treatment 2.7 ± 0,3): 0.3 ± 0.04 nm bilirubin/hr/mg. protein | HEME OXYGENASE ACTIVITY 24 HOURS AFTER TREATMENT (heme oxygenase [5]; SPLEEN, prior to treatment 12.4 ± 0.4): 2.3 ± 0.3 nm bilirubin/hr/mg. protein | inhibition of splenic heme oxygenase (heme oxygenase [5]; following intravenous administration): 50-75% | BILIRUBIN/CO REDUCTION (percent) (bilirubin levels [6]; BILE DUCT LIGATED RAT, dose 100 umoles/kg): 62-70% | BILIRUBIN/CO REDUCTION (percent) (bilirubin levels [6]; NEONATAL GUNN RAT, dose 50 umoles/kg): 19% | BILIRUBIN/CO REDUCTION (percent) (bilirubin levels [6]; NEONATAL RAT/HEMATOMA, dose 65 umoles/kg): 25% | BILIRUBIN/CO REDUCTION (percent) (bilirubin levels [6]; NORMAL ADULT RAT, dose 10-50 umoles/kg): 24-30%

C=CC1=C(C)c2cc3[n-]c(cc4nc(cc5[n-]c(cc1n2)c(C)c5C=C)C(C)=C4CCC(=O)O)c(CCC(=O)O)c3C.[Zn+2] [ZnPP, zinc protoporphyrin]
efficacy as heme oxygenase inhibitor relative to SnPP (heme oxygenase [7]): relatively ineffective | BILIRUBIN/CO REDUCTION (percent) (bilirubin levels [6]; NORMAL ADULT RAT, dose 4-40 umoles/kg (ZnPP)): 20-30%

chromium protoporphyrin [CrPP]
toxicity [8]: exhibits some toxicity | BILIRUBIN/CO REDUCTION (percent) (bilirubin levels [6]; NEONATAL RAT, dose 10 umoles/kg (CrPP)): 32%
